This is an account of results in patent US8614327B2 (Vertex Pharmaceuticals Incorporated, priority 2004, dated 2013).

The structures appear in SMILES notation. A value given as a limit tells only on which side of the number the result lay.

A word on the EC50: it is the midpoint of the concentration-response curve.

For the assay, the target named is T1, ΔF508-CFTR (Homo sapiens, UniProt P13569, DEL508-508).
T1 construct: expressed in transfected cells
In words: Membrane potential optical (FRET/VIPR) assay, identification of potentiator compounds. The class given is cell-based. The settings on record: Table 3, assay not given; for % Activity: relative efficacy. An excerpt: I) Membrane Potential Optical Methods for Assaying ΔF508-CFTR Modulation Properties of Compounds The optical membrane potential assay utilized voltage-sensitive FRET sensors described by Gonzalez and Tsien (See, Gonzalez, J. E. and R. Y. Tsien (1995) “Voltage sensing by fluorescence resonance energy transfer in single cells” Biophys J 69(4): 1272-80, and Gonzalez, J. E. and R. Y. Tsien (1997) “Improved indicators of cell membrane potential that use fluorescence resonance energy transfer” Chem Biol 4(4): 269-77) in combination with instrumentation for measuring fluorescence changes such as the Voltage/Ion Probe Reader (VIPR) (See, […]. Oades, et al. (1999) “Cell-based assays and instrumentation for screening ion-channel targets” Drug Discov Today 4(9): 431-439). These voltage sensitive assays are based on the change in fluorescence resonant energy transfer (FRET) between the membrane-soluble, voltage-sensitive dye, DiSBAC2(3), and a fluorescent phospholipid, CC2-DMPE, which is attached to the outer leaflet of the plasma membrane and acts as a FRET donor. Changes in membrane potential (Vm) cause the negatively charged DiSBAC2(3) to redistribute across the plasma membrane and the amount of energy transfer from CC2-DMPE changes accordingly. The changes in fluorescence emission were monitored using VIPR which is an integrated liquid handler and fluorescent detector designed to conduct cell-based screens in 96- or 384-well microtiter plates. To identify potentiators of ΔF508-CFTR, a double-addition HTS assay format was developed. During the first addition, a Cl^--free medium with or without test compound was added to each well. […] (in mM) NaCl 160, KCl 4.5, CaCl2 2, MgCl2 1, HEPES 10, pH 7.4 with NaOH. • Chloride-free bath solution: Chloride salts in Bath Solution #1 are substituted with gluconate salts. • CC2-DMPE: Prepared as a 10 mM stock solution in DMSO and stored at -20° C. • DiSBAC2(3): Prepared as a 10 mM stock in DMSO and stored at -20° C. NIH3T3 mouse fibroblasts stably expressing ΔF508-CFTR are used for optical measurements of membrane potential. […] For all optical assays, the cells were seeded at 30,000/well in 384-well matrigel-coated plates and cultured for 2 hrs at 37° C. before culturing at 27° C. for 24 hrs. for the potentiator assay.

T1 sequence (P13569 with tags, fused parts or gaps DEL508-508): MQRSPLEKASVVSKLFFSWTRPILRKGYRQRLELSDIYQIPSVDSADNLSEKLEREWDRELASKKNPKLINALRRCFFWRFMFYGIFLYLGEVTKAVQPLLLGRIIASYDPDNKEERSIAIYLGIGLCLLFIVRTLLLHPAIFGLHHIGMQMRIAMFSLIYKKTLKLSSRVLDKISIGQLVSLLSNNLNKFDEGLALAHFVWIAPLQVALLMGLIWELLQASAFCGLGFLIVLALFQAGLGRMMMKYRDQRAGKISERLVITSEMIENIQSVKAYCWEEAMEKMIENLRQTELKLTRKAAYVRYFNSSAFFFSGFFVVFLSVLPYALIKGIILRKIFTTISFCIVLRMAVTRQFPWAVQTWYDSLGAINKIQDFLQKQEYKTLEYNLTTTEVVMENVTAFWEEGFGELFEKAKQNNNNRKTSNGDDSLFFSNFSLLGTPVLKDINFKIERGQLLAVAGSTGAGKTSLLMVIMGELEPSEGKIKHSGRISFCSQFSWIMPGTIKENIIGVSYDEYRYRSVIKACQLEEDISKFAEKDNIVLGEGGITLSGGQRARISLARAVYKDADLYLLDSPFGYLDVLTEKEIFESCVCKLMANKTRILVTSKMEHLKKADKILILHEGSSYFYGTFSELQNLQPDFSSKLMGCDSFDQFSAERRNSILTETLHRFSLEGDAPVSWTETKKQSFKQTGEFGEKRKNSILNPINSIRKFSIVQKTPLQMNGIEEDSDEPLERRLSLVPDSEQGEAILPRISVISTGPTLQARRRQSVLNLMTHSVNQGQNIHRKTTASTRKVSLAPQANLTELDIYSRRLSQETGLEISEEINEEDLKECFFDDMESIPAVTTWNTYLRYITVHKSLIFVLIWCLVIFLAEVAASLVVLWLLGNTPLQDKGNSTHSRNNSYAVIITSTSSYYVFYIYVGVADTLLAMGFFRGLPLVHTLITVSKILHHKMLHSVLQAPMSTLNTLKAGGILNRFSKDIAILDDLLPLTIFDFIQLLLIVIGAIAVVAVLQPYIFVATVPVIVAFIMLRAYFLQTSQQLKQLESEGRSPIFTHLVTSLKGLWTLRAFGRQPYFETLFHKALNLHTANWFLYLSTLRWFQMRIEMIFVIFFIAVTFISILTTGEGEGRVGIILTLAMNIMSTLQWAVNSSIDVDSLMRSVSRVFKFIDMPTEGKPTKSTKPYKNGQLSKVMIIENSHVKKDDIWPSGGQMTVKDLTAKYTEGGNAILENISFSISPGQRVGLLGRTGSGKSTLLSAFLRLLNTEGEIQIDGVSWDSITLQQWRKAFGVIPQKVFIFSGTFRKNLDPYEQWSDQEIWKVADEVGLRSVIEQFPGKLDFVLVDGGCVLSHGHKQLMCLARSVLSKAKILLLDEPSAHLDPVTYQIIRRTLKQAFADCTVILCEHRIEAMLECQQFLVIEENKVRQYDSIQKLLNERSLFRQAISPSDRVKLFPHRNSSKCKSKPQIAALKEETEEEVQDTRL

As for `O=C(Nc1ccc2nc(-c3ccccc3)[nH]c2c1)c1c[nH]c2ccccc2c1=O` [Compound 73, 4-oxo-N-(2-phenyl-3H-benzoimidazol-5-yl)-1H-quinoline-3-carboxamide], the half-maximal effective concentration (EC50) fell in the range of 25 to 60 µM and the “% Activity” value is reported as “+ (<25%)”.
In the case of `CCOc1cccc2c(=O)c(C(=O)Nc3cc(O)c(C(C)(C)C)cc3F)c[nH]c12` [Compound 526, 8-ethoxy-N-(2-fluoro-5-hydroxy-4-tert-butyl-phenyl)-4-oxo-1H-quinoline-3-carboxamide], the EC50 fell in the range of 10 to 25 µM and the “% Activity” value is listed as “+ (<25%)”.
`CNc1ccc(C(C)C)c(NC(=O)c2c[nH]c3ccccc3c2=O)c1` [Compound 399, N-(2-isopropyl-5-methylamino-phenyl)-4-oxo-1H-quinoline-3-carboxamide]: the concentration giving a half-maximal response (EC50) is < 10 µM and the “% Activity” value is recorded as “++ (between 25% to 100%)”.
In the case of `O=C(Nc1ccccc1-c1ccccc1)c1c[nH]c2cc(C(F)(F)F)ccc2c1=O` [Compound 469, 4-oxo-N-(2-phenylphenyl)-7-(trifluoromethyl)-1H-quinoline-3-carboxamide], the 50% effective concentration (EC50) was < 10 µM and the “% Activity” value is “++ (between 25% to 100%)”.
The matching figures for `CC(=O)Nc1cc(NC(=O)c2c[nH]c3ccccc3c2=O)ccc1C` [Compound 248, N-(3-Acetylamino-4-methyl-phenyl)-4-oxo-1H-quinoline-3-carboxamide]: 10 to 25 µM and “++ (between 25% to 100%)”.
For `Cc1cccc2[nH]cc(C(=O)Nc3ccc(N4[C@@H](C)CC[C@@H]4C)cc3C(F)(F)F)c(=O)c12` [Compound 516, N-(4-((2S,5S)-2,5-dimethylpyrrolidin-1-yl)-2-(trifluoromethyl)phenyl)-5-methyl-4-oxo-1,4-dihydroquinoline-3-carboxamide] the same measures were < 10 µM and “++ (between 25% to 100%)”.
The matching figures for `COc1cc2c(=O)c(C(=O)Nc3cc(O)c(C(C)(C)C)cc3C(C)(C)C)c[nH]c2cc1F` [Compound 709, 7-fluoro-N-(5-hydroxy-2,4-ditert-butyl-phenyl)-6-methoxy-4-oxo-1H-quinoline-3-carboxamide]: < 10 µM and “+++ (>100%)”.
As to `Nc1cc(NC(=O)c2c[nH]c3ccccc3c2=O)cc(C(F)(F)F)c1` [Compound 429, N-[3-amino-5-(trifluoromethyl)phenyl]-4-oxo-1H-quinoline-3-carboxamide], the 50% effective concentration (EC50) was < 10 µM and the “% Activity” value is listed as “++ (between 25% to 100%)”.
The matching figures for `CC(C)c1ccc(NC(=O)c2c[nH]c3c(F)cccc3c2=O)c(C(F)(F)F)c1` [Compound 573, 8-fluoro-N-[4-isopropyl-2-(trifluoromethyl)phenyl]-4-oxo-1H-quinoline-3-carboxamide]: < 10 µM and “++ (between 25% to 100%)”.
`CC1(c2cc(F)c(NC(=O)c3c[nH]c4ccc(F)cc4c3=O)cc2O)CCCCC1` [Compound 218, 6-fluoro-N-[2-fluoro-5-hydroxy-4-(1-methylcyclohexyl)-phenyl]-4-oxo-1H-quinoline-3-carboxamide]: the EC50 was < 10 µM and the “% Activity” value was “++ (between 25% to 100%)”.
The matching figures for `O=C(Nc1ccc(N2CC[C@H](O)C2)cc1C(F)(F)F)c1c[nH]c2ccccc2c1=O` [Compound 655, (S)-N-(4-(3-hydroxypyrrolidin-1-yl)-2-(trifluoromethyl)phenyl)-4-oxo-1,4-dihydroquinoline-3-carboxamide]: < 10 µM and “++ (between 25% to 100%)”.
The matching figures for `CC(C)(C)c1cc(F)c(NC(=O)c2c[nH]c3c(C(F)(F)F)cccc3c2=O)cc1O` [Compound 638, N-(2-fluoro-5-hydroxy-4-tert-butyl-phenyl)-4-oxo-8-(trifluoromethyl)-1H-quinoline-3-carboxamide]: < 10 µM and “+ (<25%)”.
The matching figures for `CC(=O)N1CCc2ccc(NC(=O)c3c[nH]c4ccccc4c3=O)cc2C1` [Compound 303, N-(2-acetyl-1,2,3,4-tetrahydroisoquinolin-7-yl)-4-oxo-1H-quinoline-3-carboxamide]: 10 to 25 µM and “++ (between 25% to 100%)”.
Take `CC1=NN(c2cccc(NC(=O)c3c[nH]c4ccccc4c3=O)c2)C(=O)C1` [Compound 212, N-[3-(3-methyl-5-oxo-1,4-dihydropyrazol-1-yl)phenyl]-4-oxo-1H-quinoline-3-carboxamide]: the concentration giving a half-maximal response (EC50) lay within 25 to 60 µM and the “% Activity” value is recorded as “+ (<25%)”.
With `CC(C)(C)c1ccc(NC(=O)c2c[nH]c3cccc(O)c3c2=O)cc1F` [Compound 491, N-(3-fluoro-4-tert-butyl-phenyl)-5-hydroxy-4-oxo-1H-quinoline-3-carboxamide], the concentration giving a half-maximal response (EC50) is < 10 µM and the “% Activity” value is “++ (between 25% to 100%)”.
The matching figures for `CSc1ccccc1NC(=O)c1c[nH]c2ccccc2c1=O` [Compound 229, N-(2-methylsulfanylphenyl)-4-oxo-1H-quinoline-3-carboxamide]: < 10 µM and “++ (between 25% to 100%)”.
For `O=C(Nc1ccccn1)c1c[nH]c2ccccc2c1=O` [Compound 155, 4-oxo-N-(2-pyridyl)-1H-quinoline-3-carboxamide] the same measures were 25 to 60 µM and “+ (<25%)”.
For `O=C(Nc1ccccc1-c1nc2ccccc2[nH]1)c1c[nH]c2ccccc2c1=O` [Compound 227, N-[2-(3H-benzoimidazol-2-yl)phenyl]-4-oxo-1H-quinoline-3-carboxamide] the same measures were 25 to 60 µM and “+ (<25%)”.
Consider `CC1(c2ccc(NC(=O)c3c[nH]c4ccccc4c3=O)cc2)COC1` [Compound 523, N-[4-(3-methyloxetan-3-yl)phenyl]-4-oxo-1H-quinoline-3-carboxamide], for which the concentration giving a half-maximal response (EC50) is < 10 µM and the “% Activity” value is reported as “++ (between 25% to 100%)”.
For `CCOC(=O)c1c(NC(=O)c2c[nH]c3ccccc3c2=O)ccc2cc[nH]c12` [Compound 412, 6-[(4-oxo-1H-quinolin-3-yl)carbonylamino]-1H-indole-7-carboxylic acid ethyl ester] the same measures were < 10 µM and “++ (between 25% to 100%)”.
For the molecule `Cc1cccc2[nH]cc(C(=O)Nc3ccc(N4CC[C@@H](F)C4)cc3C(F)(F)F)c(=O)c12` [Compound 541, (R)-N-(4-(3-fluoropyrrolidin-1-yl)-2-(trifluoromethyl)phenyl)-5-methyl-4-oxo-1,4-dihydroquinoline-3-carboxamide], the half-maximal effective concentration (EC50) is < 10 µM and the “% Activity” value was “++ (between 25% to 100%)”.
For the molecule `COc1cc(NC(=O)c2c[nH]c3ccc(F)cc3c2=O)cc(C(F)(F)F)c1` [Compound 666, 6-fluoro-N-[3-methoxy-5-(trifluoromethyl)phenyl]-4-oxo-1H-quinoline-3-carboxamide], the 50% effective concentration (EC50) was < 10 µM and the “% Activity” value was “++ (between 25% to 100%)”.
For `COc1cc(C#N)c(NC(=O)c2c[nH]c3ccccc3c2=O)cc1OC` [Compound 106, N-(2-cyano-4,5-dimethoxy-phenyl)-4-oxo-1H-quinoline-3-carboxamide] the same measures were 25 to 60 µM and “+ (<25%)”.
On to `CCc1ccccc1NC(=O)c1c[nH]c2ccccc2c1=O` [Compound 72, N-(2-ethylphenyl)-4-oxo-1H-quinoline-3-carboxamide], for which the EC50 was < 10 µM and the “% Activity” value is “++ (between 25% to 100%)”.
For `O=C(Nc1cc(Cl)ccc1Oc1ccccc1)c1c[nH]c2ccccc2c1=O` [Compound 292, N-(5-chloro-2-phenoxy-phenyl)-4-oxo-1H-quinoline-3-carboxamide] the same measures were < 10 µM and “++ (between 25% to 100%)”.
With `O=C(Nc1ccc2cc(C(F)(F)F)[nH]c2c1)c1c[nH]c2ccccc2c1=O` [Compound 537, 4-oxo-N-[2-(trifluoromethyl)-1H-indol-6-yl]-1H-quinoline-3-carboxamide], the EC50 is < 10 µM and the “% Activity” value is “++ (between 25% to 100%)”.
For `CCCc1ccc(NC(=O)c2c[nH]c3ccccc3c2=O)cc1NC(=O)OC` [Compound 221, [5-[(4-oxo-1H-quinolin-3-yl)carbonylamino]-2-propyl-phenyl]aminoformic acid methyl ester] the same measures were < 10 µM and “++ (between 25% to 100%)”.
